In the NIST ThermoML archive (doi:10.1016/j.jct.2004.10.011):

Test: xn = mol fraction of the nth substance listed
Details: 298.15 K, Liquid, Vibrating tube method

CCC(=O)c1ccccc1 [ethyl phenyl ketone] + Cc1ccccc1
mass density [kg/m3]
Details | x2 = 0 | x2 = 0.1048 | x2 = 0.2025 | x2 = 0.3006 | x2 = 0.3991 | x2 = 0.4998 | x2 = 0.6004 | x2 = 0.7036 | x2 = 0.8028 | x2 = 0.902
100 kPa | 1005.3 | 993.5 | 982.2 | 970.2 | 957.5 | 943.76 | 929.02 | 913.4 | 897.3 | 880.1
2130 kPa | 1006.4 | 994.6 | 983.3 | 971.3 | 958.6 | 944.95 | 930.27 | 914.7 | 898.6 | 881.5
4150 kPa | 1007.5 | 995.8 | 984.5 | 972.6 | 959.9 | 946.25 | 931.61 | 916 | 900 | 882.9
6180 kPa | 1008.7 | 996.9 | 985.7 | 973.8 | 961.2 | 947.55 | 932.93 | 917.4 | 901.4 | 884.4
8210 kPa | 1009.8 | 998.1 | 986.9 | 975 | 962.4 | 948.81 | 934.23 | 918.7 | 902.8 | 885.8
10230 kPa | 1010.9 | 999.2 | 988 | 976.1 | 963.6 | 950.05 | 935.53 | 920 | 904.2 | 887.2
11250 kPa | 1011.5 | 999.8 | 988.6 | 976.7 | 964.2 | 950.67 | 936.16 | 920.7 | 904.8 | 887.9
12260 kPa | 1012.1 | 1000.3 | 989.2 | 977.3 | 964.8 | 951.26 | 936.78 | 921.3 | 905.5 | 888.6
14290 kPa | 1013.2 | 1001.5 | 990.3 | 978.5 | 966 | 952.5 | 938.05 | 922.6 | 906.8 | 890
16310 kPa | 1014.3 | 1002.6 | 991.4 | 979.6 | 967.1 | 953.69 | 939.26 | 923.8 | 908.1 | 891.3
18340 kPa | 1015.3 | 1003.7 | 992.5 | 980.7 | 968.3 | 954.88 | 940.49 | 925.1 | 909.4 | 892.6
20370 kPa | 1016.4 | 1004.8 | 993.6 | 981.8 | 969.4 | – | – | – | – | –
